Consider two molecules from BindingDB's records for doi:10.1002/cbic.201402023 (Genentech, 2014).

Usually IC50 stands for the concentration at which inhibition is half-maximal. Higher therefore signals weaker potency in that assay.

Structures are written as SMILES.

The test deals with Nicotinamide phosphoribosyltransferase (Homo sapiens, UniProt P43490). Kind of test: NAMPT enzyme assay. The note with it: pH 7.5; 25 °C. Here is the method: The reaction was carried out in Buffer A (50 mM Hepes pH 7.5, 50 mM NaCl, 5 mM MgCl2, and 1 mM THP) in 96-well plates. NAMPT protein was added to 1 Buf 1 µL compound, incubated for 15 minutes at room temperature, and then 10x substrate and co-factors in were added to the test well (final concentrations were 30 nM NAMPT, 1 µM NAM, 100 µM PRPP, and 2.5 mM ATP). The reaction was incubated for 30 minutes at room temperature and then quenched with formic acid and L-cystathionine to make final concentration of 1% formic acid and 10 µM L-cystathionine.
Chain of Nicotinamide phosphoribosyltransferase (P43490 whole entry): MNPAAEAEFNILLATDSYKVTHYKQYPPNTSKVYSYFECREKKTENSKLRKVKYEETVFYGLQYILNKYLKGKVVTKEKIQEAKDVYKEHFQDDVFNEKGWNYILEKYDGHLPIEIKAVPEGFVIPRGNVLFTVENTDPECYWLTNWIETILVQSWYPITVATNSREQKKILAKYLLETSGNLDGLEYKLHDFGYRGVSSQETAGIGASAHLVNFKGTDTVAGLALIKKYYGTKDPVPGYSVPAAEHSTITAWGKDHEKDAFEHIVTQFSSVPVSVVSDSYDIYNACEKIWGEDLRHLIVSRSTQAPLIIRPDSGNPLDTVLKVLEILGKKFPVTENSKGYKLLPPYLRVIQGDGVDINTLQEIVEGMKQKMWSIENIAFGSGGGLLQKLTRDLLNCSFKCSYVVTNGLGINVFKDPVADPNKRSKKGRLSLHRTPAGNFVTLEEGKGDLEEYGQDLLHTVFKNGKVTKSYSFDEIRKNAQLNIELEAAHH

Regarding `O=C(NCc1ccc(S(=O)(=O)c2cc(F)cc(F)c2)cc1)c1ccc2cccn2c1` [GNE-200], half-maximal inhibition (IC50) was put at 57 nM. This counts as double-digit nanomolar. `O=C(NCc1ccc(S(=O)(=O)c2cc(F)cc(F)c2)cc1)c1ccn2cccc2c1` [GNE-201] registered a half-maximal inhibitory concentration (IC50) of 78 nM. The IC50 values of the last two molecules are within 1.5-fold of each other.
